# From patent US9464064B2, “HCV helicase inhibitors and methods of use thereof” (University of Kansas, priority 2011, dated 2016)
# What was measured:
# [1] = Parallel Artificial Membrane Permeability Assay (PAMPA); assay type: in vitro ADME; conditions: acceptor pH 7.4
# Method: Permeability was assessed using the Parallel Artificial Membrane Permeability Assay (PAMPA) in a 96-well format. All liquid dispensed and transfer steps were performed with the FREEDOM EVO automated liquid handler (Tecan US). Measurements were performed in an aqueous buffer solution (PRISMA HT, pION Inc.) at pH 5.0, 6.2, and 7.4, in duplicate. A “sandwich” plate (pION Inc.) composed of a donor bottom plate and an acceptor filter plate was used. The donor wells contained the compounds in 180 μl system solution, and magnetic stir bars. The filter on the bottom of each acceptor well was coated with GIT-0 lipid (pION Inc.) and filled with 200 μl of Acceptor Sink Buffer, pH 7.4 (pION Inc.) containing a surfactant to mimic the function of serum proteins. The permeation time was 30 minutes and moderate stirring (equivalent to 40 μm Aqueous Boundary Layer thickness) was applied using the GUT-BOX (pION, Inc.). After the permeation time, the sandwich was disassembled and the amount of compound present in both the donor and acceptor wells was measured by UV absorbance (250-498 nm) using the Infinite M200 (Tecan US) and compared to spectra obtained from reference standards. Mass balance was used to determine the amount of material embedded in the membrane filter. The effective permeability, Pe, was calculated using the software PAMPA Evolution Plus, version 3.2 (pION Inc). Verapamil HCl (considered highly permeable), Metoprolol (considered moderately permeable), and Ranitidine (considered poorly permeable) were used as reference standards. Permeation time was 30 minutes. Final DMSO concentration was 0.5% and standards and test compounds were assayed at 100 μM.
# [2] = Plasma protein binding (RED), mouse; assay type: in vitro ADME
# Method: TEFLON Base Plate wells were rinsed with 20% ethanol for 10 minutes. Ethanol was then removed and wells were rinsed with ultrapure water and allowed to dry. RED (rapid equilibrium dialysis) inserts from Thermo Scientific (Pierce) were placed (open end up) into the wells of the base plate. All liquid was dispensed and transfer steps were performed with the FREEDOM EVO automated liquid handler (Tecan US). The sample chambers (red ring) contained 300 μl of a mixture of plasma and compound, and the buffer chambers received 500 μl of dialysis buffer (1×PBS, pH7.4). Duplicate inserts were made for each concentration tested. The base plate was covered with sealing tape and incubated at 37° C. on an orbital shaker at 350 rpm for 4 hours. After the incubation time, equal volumes from both chambers were removed and transferred to a 96 well plate containing either plasma or buffer. […] The amount of compound in the supernatant was determined by LC/MS/MS (Applied Biosystems, Sciex API4000 Q-Trap). The percent of free and bound compounds were calculated with the following formula: % of bound parent compound=[(amount of compound in donor-receiver/amount of compound in donor)×100]. Results reported are the mean of each reaction duplicate, normalized to the internal standard, and expressed as a percent compound bound after the incubation time. […]
# [3] = tested on: NS3 protease in Huh7.5/HCV Con1sg Rluc cells; assay: IPS-1 (MAVS)-based reporter cell-based protease assay; set-up: species or system hepatitis C virus; conditions: 10 μM, 72 hours
# Method: An IPS-1 (also known as MAVS)-based reporter assay was used for cell-based protease assay. […] RFP-NLS-IPS pseudoparticles were transduced into Huh7.5/HCV Con1sg Rluc cells in a 24-well plate containing cover slips and compounds were added to the cells after 6 hours at a 10 μM concentration and after 72 hours from the first addition, cells were fixed in 1% PFA, washed twice with PBS, mounted on glass slides and microscopic analyses were done.
# Microscopy was performed with a Nikon Ti-E inverted fluorescence microscope using a 20× and 40×/NA 1.4 objective. Compounds were imaged using DAPI filter 340/40 band-pass excitation and a 435/50 band pass emission filter. For ALEXA 546 and RFP-NLS-IPS, a 528/25 nm band pass excitation filter and 590/60 nm band-pass emission filter were used. Image acquisition was performed with a Q imaging ROLERA camera and the NIS elements basic research imaging software (Nikon). […]
# The assay selected (Jones, et al. (2010) supra) uses a fusion protein made from a NS3 protease cellular target called IPS-1 (also known as MAVS) fused to a red fluorescent protein (RFP) and a nuclear localization signal (NLS). Lentivirus expressing the RFP-NLS-IPS-1 was used to transduce the above Rluc subgenomic HCV replicon cell line, and the effect of compounds on the location of RFP-NLS was examined using fluorescence microscopy.
# [4] = tested on: HCV replicon RNA; assay: HCV RNA RT-qPCR assay in replicon cells; assay type: cell-based, hepatitis C virus; conditions: qRT-PCR, 10 days of treatment
# Method: For the HCV RNA reverse transciptase quantitative PCR (RT-qPCR) assay, cells were treated, washed 2 times with PBS, harvested, and collected by centrifugation (1000 g) for 5 minutes at 4° C. Total RNA was then extracted using the TRIZOL kit (Invitrogen) and suspended in 30 μL of nuclease-free water. RNA concentration was determined from A260. RT-qPCR was performed using TAQMAN probes, 1 μg total RNA and the QSCRIPT One-step Fast qRT-PCR kit (Quanta Biosciences, Gaithersburg, Md.). Reverse transcription was carried out at 50° C. for 20 minutes followed by one cycle at 95° C. for 5 minutes and 40 cycles at 95° C. for 15 seconds and 60° C. for 1 minute. […] The amount of HCV RNA in each sample was determined by first calculating the ΔCT of each sample, which was obtained by subtracting the threshold cycle (CT) obtained with the rRNA primers obtained from that of the CT with the HCV primers. ΔΔCT values were obtained by subtracting ΔCT values obtained in the presence of compound from ΔCT obtained with cells treated with DMSO only. The relative changes in HCV RNA levels were then calculated by assuming that each CT difference reflected a two-fold difference in RNA level (i.e., Expression=2^−ΔΔCT).
smiles,measurement,setting,value
"Cc1ccc2nc(-c3ccc4nc(-c5ccc(NC(=O)c6cccc(Cl)c6)cc5)sc4c3)sc2c1S(=O)(=O)O [Compound 17, 2′-(4-(3-chlorobenzamido)phenyl)-6-methyl-[2,6′-bibenzo[d]thiazole]-7-sulfonic acid]","Papp at 30 min, 100 μM","[1]; PAMPA, donor pH 6.2, read-out: PAMPA Pe",0.22 ×10⁻⁶ cm/s
same,PAMPA Pe,[1]; donor pH 5.0,0 (5.0) ×10^−6 cm/s
same,PAMPA Pe,[1]; donor pH 7.4,0 (7.4) ×10^−6 cm/s
same,"fraction unbound at 4 h, 1 μM","[2]; pH 7.4, 1 μM, read-out: Plasma Protein Binding (% Bound) Mouse (converted)",0.02
same,"fraction unbound at 4 h, 10 μM","[2]; pH 7.4, 10 μM, read-out: Plasma Protein Binding (% Bound) Mouse",0.01
"Cc1ccc2nc(-c3ccc4nc(-c5ccc(NC(=O)c6cc(C(F)(F)F)cc(C(F)(F)F)c6)cc5)sc4c3)sc2c1S(=O)(=O)O [Compound 24, 2′-(4-(3,5-bis(trifluoromethyl)benzamido)phenyl)-6-methyl-[2,6′-bibenzo[d]thiazole]-7-sulfonic acid]",nuclear translocation of RFP-NLS (cellular NS3 protease activity),[3],did not inhibit nuclear translocation
same,decrease of HCV replicon RNA content,[4],about 13 fold
